PubChem BioAssay (NCI)
“And” between values parts separate entries of the source, which are not always exact repeats. Equal values may be shown once.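 Tested at 5 concentrations; 48 h exposure; 96-well plates; endpoints linearly interpolated, else capped at highest concentration. At the GI50, growth is halved. TGI: concentration producing complete growth inhibition.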

Key:
Assay in all cases: NCI anticancer screen, dose series, 48 h
A498 renal = test system: A498 renal
CAKI-1 renal = test system: CAKI-1 renal
EKVX NSCLC = test system: EKVX NSCLC
HCT-15 colon = test system: HCT-15 colon
HOP-62 NSCLC = test system: HOP-62 NSCLC
MALME-3M melanoma = test system: MALME-3M melanoma
OVCAR-4 ovarian = test system: OVCAR-4 ovarian
SF-268 CNS = test system: SF-268 CNS
SF-539 CNS = test system: SF-539 CNS
SK-MEL-2 melanoma = test system: SK-MEL-2 melanoma

| Structure (SMILES) | GI50 (A498 renal) [µM] | TGI (A498 renal) [µM] | GI50 (CAKI-1 renal) [µM] | TGI (CAKI-1 renal) [µM] | GI50 (EKVX NSCLC) | TGI (EKVX NSCLC) [µM] | GI50 (HCT-15 colon) | TGI (HCT-15 colon) | GI50 (HOP-62 NSCLC) | TGI (HOP-62 NSCLC) | GI50 (MALME-3M melanoma) [µM] | TGI (MALME-3M melanoma) [µM] | GI50 (OVCAR-4 ovarian) | TGI (OVCAR-4 ovarian) [µM] | GI50 (SF-268 CNS) [µM] | TGI (SF-268 CNS) [µM] | GI50 (SF-539 CNS) | TGI (SF-539 CNS) | GI50 (SK-MEL-2 melanoma) | TGI (SK-MEL-2 melanoma) |
| --- | --- | --- | --- | --- | --- | --- | --- | --- | --- | --- | --- | --- | --- | --- | --- | --- | --- | --- | --- | --- |
| Cc1sc(C)c(Cc2c(C)sc(C)c2CCl)c1CCl | > 100 | > 100 | > 100 | > 100 | > 100 µM | > 100 | > 100 µM | > 100 µM | > 100 µM | > 100 µM | 81.4 | > 100 | > 100 µM | > 100 | > 100 | > 100 | > 100 µM | > 100 µM | > 100 µM | > 100 µM |
| CCOC(=O)C(Cc1c[nH]c2ccc(N(CCCl)CCCl)cc12)(NC(C)=O)C(=O)OCC | 20.3 | 54.2 | – | – | 52.2 µM and 38.7 µM | 403 | 14.6 µM and 16.1 µM | 39.9 µM and 53.4 µM | 14.4 µM and 10.1 µM | 51.7 µM and 66.8 µM | 11.1 | 28.3 | 53 µM and 47.8 µM | 682 | 5.21 | 46.5 | 3.18 µM and 6.88 µM | 12.6 µM and 30.3 µM | 5.04 µM and 27.6 µM | 19.3 µM and 65.9 µM |
| NNc1nc2ccccc2c(=O)n1NC(=O)C(=O)Nc1cccc(C(F)(F)F)c1 | – | > 100 | – | > 100 | – | > 100 | – | > 100 µM | – | > 100 µM | – | > 100 | – | > 100 | – | > 100 | – | > 100 µM | – | > 100 µM |
| CC(=O)OC1CC2C(C)(C)C(=O)C=C[C@]2(C)C2CCC3(C)C(c4ccoc4)C(=O)[C@H]4O[C@]43[C@]12C (stereo not given in full) | – | 36.8 | – | 75.1 | – | 89.2 | – | 37.7 µM | – | 42.7 µM | – | 32.1 | – | > 100 | – | > 100 | – | 39.9 µM | – | 43.4 µM |
| NC(=O)N/N=C/C(/C=N/NC(N)=O)[N+](=O)[O-] | – | > 100 | – | > 100 | – | > 100 | – | – | – | > 100 µM | – | > 100 | – | > 100 | – | > 100 | – | > 100 µM | – | > 100 µM |
| CCOC(=O)C(=Cc1ccccc1[N+](=O)[O-])C(=O)OCC | 5.6 | 17.3 | 3.61 | 14.3 | 6.61 µM | 20.9 | 1.83 µM | 4.47 µM | 3.48 µM | 12.9 µM | 3.85 | 13.2 | 4.68 µM | 18.1 | 3.35 | 11.5 | 3.55 µM | 9.32 µM | 4.01 µM | 11.9 µM |
| CC(=O)O[C@H]1CC[C@@]2(C)C(=CC[C@H]3[C@@H]4C/C(=C\c5cccc(OCCN6CCOCC6)c5)[C@H](OC(C)=O)[C@@]4(C)CC[C@@H]32)C1 | 15.3 | 29.1 | 12.2 | 59 | 11 µM | 36.7 | 2.95 µM | 11.5 µM | 6.29 µM | 19.5 µM | 11.4 | 23.5 | 8.16 µM | > 100 | 12.6 | 58.8 | 3.64 µM | 13.9 µM | 12.2 µM | 24.5 µM |
| COCCOC(=O)NC(=O)Nc1ccc(/C(=N/O)c2ccc(Cl)cc2)cc1 | 0.179 | 3.46 | – | > 100 | 0.161 µM | > 89.8 | 0.0842 µM | 19.8 µM | 0.127 µM | 41.2 µM | 11.9 | 33.1 | 0.385 µM | 54.2 | 0.209 | > 100 | 0.121 µM | 0.341 µM | – | 29 µM |
